# In patent US10570155B2, “Imidazooxazole derivative having antitumor effect, and pharmaceutical composition including same” (KOREA INSTITUTE OF SCIENCE AND TECHNOLOGY, priority 2016, dated 2020):
# Like-named read-outs stand apart in the source and are kept apart here.
# Key:
# LOX IMVI = test: NCI cancer cell line panel screening (SRB), melanoma cell line LOX IMVI; format: cell-based, human; conditions: read-out: IC50 against melanoma cell line in vitro
# Procedure: (§1) According to the standard protocol (http://dtp.nci.nih.gov/dtpstandard/dwindex/index.isp) of the US National Cancer Institute (NCI) (www.dtp.nci.nih.gov), screening of a cancer cell line panel was performed. […] For a general screening experiment, cells were inoculated in 96-well microtiter plates in 100 μl at a plating density ranging from 5000 cells/well to 40,000 cells/well depending on the doubling time of individual cell lines. After cell inoculation, the microtiter plates were incubated at 37° C., 5% CO2, 95% air, and 100% relative humidity for 24 hours prior to addition of test compounds. 24 hours later, two plates of each cell line were fixed in situ with trichloroacetic acid (TCA) to measure the cell population for each cell line at the time of test compound addition (Tz). Test compounds were solubilized in dimethyl sulfoxide at 400-fold the intended final maximum test concentration, and stored frozen prior to use. At the time of compound addition, an aliquot of frozen concentrate was thawed and diluted to twice the intended final maximum test concentration with a complete medium containing 50 μg/ml of gentamicin. Additional four concentration of 10-fold or ½ log serial dilutions were made to provide a total of five compound concentrations plus control. Aliquots of 100 μl of these different compound dilutions were added to appropriate microtiter wells already containing 100 μl of medium, resulting in the required final compound concentrations.
# (§2) Following compound addition, the plates were incubated for additional 48 hours at 37° C., 5% CO2, 95% air, and 100% relative humidity. For adherent cells, the assay was terminated by the addition of cold TCA. Cells were fixed in situ by the gentle addition of 50 μl of cold 50% (w/v) TCA (final concentration, 10% TAC) and incubated at 4° C. for 60 minutes. The supernatant was discarded, and the plates were washed five times with tap water and air-dried. A sulforhodamine B (SRB) solution (100 μl) at 0.4% (w/v) in 1% acetic acid was added to each well, and plates were incubated at room temperature for 10 minutes. After staining, unbound dye was removed by washing five times with 1% acetic acid and the plates were air-dried. […] For suspension cells, the methodology was the same except that the assay was terminated by fixing settled cells at the bottom of the wells by gently adding 50 μl of 80% TCA (final concentration, 16% TCA). Using the seven absorbance measurements [time zero (Tz), control growth (C), and test growth rate in the presence of compound at the five concentration levels (Ti)], the growth percentage was calculated at each of the compound concentration levels. Growth inhibition percentage was calculated as follows: [(Ti−Tz)/(C−Tz)]×100 for concentrations for which Ti>/=Tz [(Ti−Tz)/Tz]×100 for concentrations for which Ti<Tz.
# SK-MEL-2 = test: NCI cancer cell line panel screening (SRB), melanoma cell line SK-MEL-2; format: cell-based, human; conditions: read-out: IC50 against melanoma cell line in vitro
# Procedure: as §1, §2
# SK-MEL-28 = test: NCI cancer cell line panel screening (SRB), melanoma cell line SK-MEL-28; format: cell-based, human; conditions: read-out: IC50 against melanoma cell line in vitro
# Procedure: as §1, §2
# SK-MEL-5 = test: NCI cancer cell line panel screening (SRB), melanoma cell line SK-MEL-5; format: cell-based, human; conditions: read-out: IC50 against melanoma cell line in vitro
# Procedure: as §1, §2
# UACC-62 = test: NCI cancer cell line panel screening (SRB), melanoma cell line UACC-62; format: cell-based; conditions: Homo sapiens, read-out: IC50 against melanoma cell line in vitro
# Procedure: (§3) According to the standard protocol (http://dtp.nci.nih.gov/dtpstandard/dwindex/index.isp) of the US National Cancer Institute (NCI) (www.dtp.nci.nih.gov), screening of a cancer cell line panel was performed. Briefly, human cell lines were allowed to grow in an RPMI 1640 medium containing 5% FBS and 2 mM L-glutamine. For a general screening experiment, cells were inoculated in 96-well microtiter plates in 100 μl at a plating density ranging from 5000 cells/well to 40,000 cells/well depending on the doubling time of individual cell lines. After cell inoculation, the microtiter plates were incubated at 37° C., 5% CO2, 95% air, and 100% relative humidity for 24 hours prior to addition of test compounds. 24 hours later, two plates of each cell line were fixed in situ with trichloroacetic acid (TCA) to measure the cell population for each cell line at the time of test compound addition (Tz). Test compounds were solubilized in dimethyl sulfoxide at 400-fold the intended final maximum test concentration, and stored frozen prior to use. At the time of compound addition, an aliquot of frozen concentrate was thawed and diluted to twice the intended final maximum test concentration with a complete medium containing 50 μg/ml of gentamicin. Additional four concentration of 10-fold or ½ log serial dilutions were made to provide a total of five compound concentrations plus control. Aliquots of 100 μl of these different compound dilutions were added to appropriate microtiter wells already containing 100 μl of medium, resulting in the required final compound concentrations.
# (§4) Following compound addition, the plates were incubated for additional 48 hours at 37° C., 5% CO2, 95% air, and 100% relative humidity. For adherent cells, the assay was terminated by the addition of cold TCA. Cells were fixed in situ by the gentle addition of 50 μl of cold 50% (w/v) TCA (final concentration, 10% TAC) and incubated at 4° C. for 60 minutes. The supernatant was discarded, and the plates were washed five times with tap water and air-dried. A sulforhodamine B (SRB) solution (100 μl) at 0.4% (w/v) in 1% acetic acid was added to each well, and plates were incubated at room temperature for 10 minutes. After staining, unbound dye was removed by washing five times with 1% acetic acid and the plates were air-dried. Bound stain was subsequently solubilized with 10 mM Trizma base, and the absorbance was read on an automated plate reader at a wavelength of 515 nm. For suspension cells, the methodology was the same except that the assay was terminated by fixing settled cells at the bottom of the wells by gently adding 50 μl of 80% TCA (final concentration, 16% TCA). Using the seven absorbance measurements [time zero (Tz), control growth (C), and test growth rate in the presence of compound at the five concentration levels (Ti)], the growth percentage was calculated at each of the compound concentration levels. Growth inhibition percentage was calculated as follows: [(Ti−Tz)/(C−Tz)]×100 for concentrations for which Ti>/=Tz [(Ti−Tz)/Tz]×100 for concentrations for which Ti<Tz.
# B-RAF = B-RAF (Homo sapiens (Human), UniProt P15056); test: Protein kinase enzymatic activity (Reaction Biology kinase hotspot, 33P-ATP); format: biochemical; conditions: read-out: Inhibitory effect against kinase activity, B-RAF (IC50)
# Procedure: (§5) Reaction biology kinase hotspot service (http://www.reactionbiology.com) was used to measure IC50. In a final reaction volume of 25 μL, kinase (5 mU to 10 mU) was incubated with 25 mM Tris (pH 7.5), 0.02 mM EGTA, 0.66 mg/ml of myelin basic protein, 10 mM magnesium acetate, and [^33P-ATP] (specific activity of about 500 CPM/pmol, concentration as required). The reaction was initiated by addition of Mg-ATP mix. After incubation for 40 min at room temperature, the reaction was stopped by addition of 5 μl of a 3% phosphoric acid solution. 10 μL of the reaction was then spotted onto a P30 filtermat and washed three times for 5 minutes in 75 mM phosphoric acid and once in methanol prior to drying and scintillation counting.
# V600E-B-RAF = V600E-B-RAF (Homo sapiens (Human), UniProt P15056, V600E); test: as above; format: biochemical; conditions: read-out: Inhibitory effect against kinase activity, V600E-B-RAF (IC50)
# Procedure: as §5
# A375P cell line = test: Inhibitory activity against proliferation of A375P melanoma cell line (MTT assay); format: cell-based; conditions: Homo sapiens
# Procedure: To examine whether the compounds (2II, 9II, 10II, and 12II to 15II) of the present disclosure have remarkable effects, as compared with imidazothiazole-based compounds previously disclosed by the present inventors (M. S. Abdel-Maksoud et al./European Journal of Medicinal Chemistry 95 (2015) 453-463), inhibitory activities thereof against proliferation of A375P cell line which is a melanoma cell line were compared by the following experiments.
# A375P cell line purchased from ATCC was cultured in a DMEM medium [containing 10% FBS and 1% penicillin/streptomycin] under 5% CO2 at 37° C. The cultured A375P cell line was collected using 0.05% trypsin-0.02% EDTA, and inoculated at a cell density of 5×10^3 cells per well in a 96-well plate. To measure cell viability, MTT [3-(4,5-dimethylthiazol-2-yl)-2,5-diphenyltetrazolium bromide] assay (CellTiter 96 Assay, Promega) was performed as follows. MTT assay was performed in accordance with the guidelines of CellTiter 96® (Promega).
# A375 = test: NCI cancer cell line panel screening (SRB), melanoma cell line A375; format: cell-based; conditions: Homo sapiens, A-375, read-out: IC50 against melanoma cell line in vitro
# Procedure: as §3, §4
# M14 = test: NCI cancer cell line panel screening (SRB), melanoma cell line M14; format: cell-based; conditions: Homo sapiens, read-out: IC50 against melanoma cell line in vitro
# Procedure: as §3, §4
# MDA-MB-435 = test: NCI cancer cell line panel screening (SRB), melanoma cell line MDA-MB-435; format: cell-based; conditions: Homo sapiens, read-out: IC50 against melanoma cell line in vitro
# Procedure: as §3, §4
# Sequence of B-RAF (P15056 whole entry): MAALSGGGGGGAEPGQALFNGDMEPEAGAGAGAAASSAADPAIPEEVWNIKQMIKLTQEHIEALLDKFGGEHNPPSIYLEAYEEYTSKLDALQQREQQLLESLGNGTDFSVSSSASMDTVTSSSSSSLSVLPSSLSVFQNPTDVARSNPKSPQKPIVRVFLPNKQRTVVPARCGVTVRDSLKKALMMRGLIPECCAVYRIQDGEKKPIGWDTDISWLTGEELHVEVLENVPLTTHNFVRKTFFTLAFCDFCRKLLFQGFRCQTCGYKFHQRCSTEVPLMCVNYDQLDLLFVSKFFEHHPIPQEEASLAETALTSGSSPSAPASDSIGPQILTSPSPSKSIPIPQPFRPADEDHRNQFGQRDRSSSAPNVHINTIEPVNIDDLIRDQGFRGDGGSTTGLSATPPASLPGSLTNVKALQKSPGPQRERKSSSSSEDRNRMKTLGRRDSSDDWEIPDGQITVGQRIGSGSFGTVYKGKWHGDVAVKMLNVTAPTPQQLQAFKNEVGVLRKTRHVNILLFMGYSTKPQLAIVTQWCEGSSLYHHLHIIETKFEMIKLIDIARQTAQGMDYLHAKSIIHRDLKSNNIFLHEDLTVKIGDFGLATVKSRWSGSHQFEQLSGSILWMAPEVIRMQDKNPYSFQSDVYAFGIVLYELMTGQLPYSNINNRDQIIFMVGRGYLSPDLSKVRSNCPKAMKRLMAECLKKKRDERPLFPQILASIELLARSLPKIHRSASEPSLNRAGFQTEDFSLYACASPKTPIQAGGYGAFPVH
# Sequence of V600E-B-RAF (P15056 whole entry V600E): as the sequence (P15056 whole entry) above, with V600E counted along it
compound,measurement,setting,value
"COc1cccc(-c2nc3sccn3c2-c2ccnc(NCCNS(=O)(=O)c3ccc(C(F)(F)F)cc3)n2)c1 [8III, N-(2-((4-(6-(3-methoxyphenyl)imidazo[2,1-b]thiazol-5-yl)pyrimidin-2-yl)amino)ethyl)-4-(trifluoromethyl)benzenesulfonamide]",IC50,LOX IMVI,3.26 µM
same,IC50,SK-MEL-2,3.04 µM
same,IC50,SK-MEL-28,3.68 µM
same,IC50,SK-MEL-5,1.24 µM
same,IC50,UACC-62,0.48 µM
same,IC50,B-RAF,0.687 µM
same,IC50,V600E-B-RAF,0.098 µM
O=S1(=O)NCCN1CCNc1nccc(-c2c(-c3cccc(O)c3)nc3sccn23)n1,IC50,A375P cell line,0.63 µM
CCN1CCN(CCNc2nccc(-c3c(-c4ccc(F)cc4)nc4sccn34)n2)S1(=O)=O [reference compound],IC50,A375P cell line,0.38 µM
"O=S1(=O)NCCCN1CCNc1nccc(-c2c(-c3cccc(O)c3)nc3occn23)n1 [8II, 2-(2-((4-(6-(3-Hydroxylphenyl)imidazo[2,1-b]oxazol-5-yl)pyrimidin-2-yl)amino)ethyl)-1,2,6-thiadiazinane 1,1-dioxide]",IC50,A375,0.058 µM
same,IC50,LOX IMVI; Homo sapiens,2.15 µM
same,IC50,M14,0.3 µM
same,IC50,MDA-MB-435,0.38 µM
same,IC50,SK-MEL-2; Homo sapiens,0.38 µM
same,IC50,SK-MEL-28; Homo sapiens,0.17 µM
same,IC50,SK-MEL-5; Homo sapiens,0.17 µM
same,IC50,UACC-62,0.059 µM
CC(C)(C)OC(=O)N1CCN(CCNc2nccc(-c3c(-c4ccc(F)cc4)nc4sccn34)n2)S1(=O)=O [reference compound],IC50,A375P cell line,> 10 µM
CC1(C)CN(CCNc2nccc(-c3c(-c4cccc(O)c4)nc4sccn34)n2)S(=O)(=O)N1,IC50,A375P cell line,0.87 µM
"CC1(C)CN(CCNc2nccc(-c3c(-c4cccc(O)c4)nc4occn34)n2)S(=O)(=O)N1 [5II, 2-(2-((4-(6-(3-Hydroxylphenyl)imidazo[2,1-b]oxazol-5-yl)pyrimidin-2-yl)amino)ethyl)-4,4-dimethyl-1,2,5-thiadiazolidine 1,1-dioxide]",IC50,A375,0.87 µM
same,IC50,LOX IMVI; Homo sapiens,2.3 µM
same,IC50,M14,0.32 µM
same,IC50,MDA-MB-435,0.74 µM
same,IC50,SK-MEL-2; Homo sapiens,1.6 µM
same,IC50,SK-MEL-28; Homo sapiens,0.22 µM
same,IC50,SK-MEL-5; Homo sapiens,0.34 µM
same,IC50,UACC-62,0.09 µM
O=S1(=O)N(CCNc2nccc(-c3c(-c4cccc(O)c4)nc4sccn34)n2)CCN1Cc1ccccc1,IC50,A375P cell line,0.25 µM
"CN1CCCN(CCNc2nccc(-c3c(-c4cccc(O)c4)nc4occn34)n2)S1(=O)=O [6II, 2-(2-((4-(6-(3-Hydroxylphenyl)imidazo[2,1-b]oxazol-5-yl)pyrimidin-2-yl)amino)ethyl)-6-methyl-1,2,6-thiadiazinane 1,1-dioxide]",IC50,A375,0.47 µM
same,IC50,LOX IMVI; Homo sapiens,4.36 µM
same,IC50,M14,0.16 µM
same,IC50,MDA-MB-435,0.49 µM
same,IC50,SK-MEL-2; Homo sapiens,2.28 µM
same,IC50,SK-MEL-28; Homo sapiens,0.24 µM
same,IC50,SK-MEL-5; Homo sapiens,0.24 µM
same,IC50,UACC-62,0.058 µM
O=S1(=O)NCCCN1CCNc1nccc(-c2c(-c3cccc(O)c3)nc3sccn23)n1,IC50,A375P cell line,0.72 µM
CN1CCN(CCNc2nccc(-c3c(-c4cccc(O)c4)nc4sccn34)n2)S1(=O)=O,IC50,A375P cell line,0.06 µM
CCN1CCN(CCNc2nccc(-c3c(-c4cccc(O)c4)nc4occn34)n2)S1(=O)=O [drawing 151],IC50,A375P cell line,0.19 µM
CC(C)(C)OC(=O)N1CCCN(CCNc2nccc(-c3c(-c4cccc(O)c4)nc4sccn34)n2)S1(=O)=O,IC50,A375P cell line,0.47 µM
O=S1(=O)N(CCNc2nccc(-c3c(-c4ccc(F)cc4)nc4sccn34)n2)CCN1Cc1ccccc1 [reference compound],IC50,A375P cell line,> 10 µM
O=S1(=O)NCCN1CCNc1nccc(-c2c(-c3ccc(F)cc3)nc3sccn23)n1 [reference compound],IC50,A375P cell line,1.9 µM
CN1CCCN(CCNc2nccc(-c3c(-c4cccc(O)c4)nc4sccn34)n2)S1(=O)=O,IC50,A375P cell line,0.47 µM
CN1CCN(CCNc2nccc(-c3c(-c4ccc(F)cc4)nc4sccn34)n2)S1(=O)=O [reference compound],IC50,A375P cell line,0.6 µM
